Measured values taken from US5292498A, “Method of treating lung disease with uridine triphosphates” (The University of North Carolina At Chapel Hill, priority 1991, dated 1994).

Assays:
[1] = tested on: normal human nasal epithelium; assay: Bioelectric studies (short circuit current, Isc) of normal human nasal epithelium in Ussing chambers; format: cell-based
Protocol: (§1) Freshly excised human nasal epithelium from normal or cystic fibrosis subjects was grown in primary culture in F-12, hormone-supplemented medium in accordance with known procedures. See R. Wu et al., Am. Rev. Respir. Dis. 132, 311-320 (1985). For [Ca^2+ ]i measurements, cultures were grown on non-fluorescent vitrogen substrates on glass coverslips. Cultures for electrophysiologic studies were grown to confluence on permeable collagen matrix supports (CMS), allowing addition of agonists to the basolateral or apical surface of the epithelial sheet.
(§2) Confluent monolayers of primary human nasal epithelium were mounted in modified Ussing chambers in accordance with known procedures. See, e.g., R. Boucher et al., J. Physiol. (Lond.) 405, 77-103 (1988); M. Knowles et al., Science 221, 1067-1070 (1983). The studies described below were performed under short circuit current conditions at 37° C., and in some studies, amiloride was added to the apical bath (10^-4 M) to block transepithelial sodium transport. Changes in transepithelial potential difference (Vt), resistance (Rt) and short circuit current (Isc) were measured in response to addition of various nucleotides. Each cultured preparation was exposed to only one concentration of an agonist on either the basolateral or apical surface to avoid the tachyphylaxis observed in preliminary cumulative dose response studies. To construct concentration-effect relationships of responses to nucleotides, it was assumed that the same maximum response to an agonist could be induced from each tissue culture preparation from the same individual.
The effects of extracellular ATP on normal human nasal epithelium were investigated employing bioelectric measurements of ion transport activity when the nucleotide was applied to either the apical or basolateral membrane. […] In general, the change in Isc induced by application of ATP to the apical or the basolateral side returned to baseline or below within 5 minutes after addition of agonist. […] Apical pretreatment with amiloride (10^-4 M) removes active Na^+ absorption as a component of the Isc so that the residual Isc reflects a Cl^- secretory current (R. Boucher et al., J. Clin. Invest. 78, 1245-1252 (1986); N. Willumsen et al., Am. J. Physiol. 256, C1033-C1044 (1989)).
A concentration-effect relationship was found when ATP was applied to normal human nasal epithelium under basal conditions (data not shown). Comparisons were made between responses of tissues from different donors based on the peak change in Isc following ATP application. The curve describes the mean peak change in Isc in response to log increasing concentrations of ATP applied to the apical or basolateral surface.
Concentration-effect relationships were also found for ATP applied to the apical or basolateral membrane of amiloride-pretreated tissues (data not shown). Again, the nucleotide's effect on ion transport was examined as the mean peak change in Isc after ATP application.
(§3) The purinergic receptor subtype(s) linked to regulation of ion transport of human nasal epithelium were characterized by obtaining concentration-effect relationships for a variety of purine and pyrimidine agonists in preparations derived from normal and CF patients. We characterized receptor subtype(s) on the […] surface by measuring nucleotide effect on basal Na^+ transport rates. Because therapies designed to induce Cl^- secretion might best be delivered by the aerosol route, receptor subtype characterization on the apical barrier was performed in the presence of amiloride. The effect of extracellular nucleotides on ion transport is reported as the percent change in Isc from control values when applied to the basolateral or apical surface of the culture. Basal pre-agonist currents were similar for tissues in each concentration group.

[2] = tested on: CF human nasal epithelium; assay: Bioelectric studies (Isc) of cystic fibrosis (CF) human nasal epithelium; format: cell-based; settings: for Isc response tracing: 10^-4 M, amiloride-pretreated (10^-4 M)
Protocol: as §1, §2, §3
Availability of Cystic Fibrosis (CF) tissues is limited, and our investigation of effects of nucleotides was restricted to examining regulation of Cl^- secretion rates and [Ca^2+ ]i levels by ATP and UTP.

[3] = tested on: CF nasal epithelial cells; assay: Intracellular calcium [Ca^2+ ]i in single CF nasal epithelial cells (Fura-2); format: cell-based, human; settings: FIG. 6
Protocol: as §1, with “132, 311-320 (1985).” left out
Primary human nasal epithelial cells grown to confluence on vitrogen coated coverslips were loaded with a final concentration of 3 μM Fura-2/AM at 37° C. for 30 minutes. The cells were then washed in NaCl Ringer and mounted in a chamber for measurements of fluorescence. To reduce the rate of leakage of Fura-2 from the cell into the extracellular space and avoid time-dependent compartmentalization of the probe, all measurements of [Ca^2+ ]i were performed at 25° C.
Measurements of [Ca^2+ ]i in single human nasal epithelial cells were obtained with a modular microspectrofluorimeter (SPEX Industries, Inc., Edison, N.J.) attached to a Zeiss Axiovert IM 35 microscope. […] The fluorescent signal from a single cell was measured with a photometer equipped with a pinhole (spot diameter of 3-5 μm) that excluded signals from adjacent cells. […]

[4] = Homo sapiens, read-out: maximum mean % change in Isc

## Nc1ncnc2c1ncn2[C@@H]1O[C@H](COP(=O)(O)OP(=O)(O)OP(=O)(O)O)[C@@H](O)[C@H]1O [ATP, adenosine triphosphate]
[1]; 10^-3 M, basolateral membrane (not seen with apical application), basal conditions
  increase in Isc at 10^-3 M: A large increase in Isc
[1]; ATP, apical or basolateral surface, no amiloride
  change in Isc on application to either surface: rapidly stimulated an increase in Isc
[1]; ATP, apical or basolateral, basal conditions
  time for change in Isc to return to baseline or below: ≤ 5 min
[1]; [4]
  Emax: 51 ± 8%
[1]; amiloride-pretreated tissues
  Cl^- secretory response: A typical Cl^- secretory response
  change in ion transport, amiloride-pretreated versus basal state: routinely smaller than that observed in tissues in the basal state
[1]; amiloride-treated tissues, apical or basolateral
  character of log concentration-effect curves: sigmoidal in character
[1]; apical surface following amiloride pretreatment, most tissues
  duration of prolonged increase in Isc above baseline: > 10 min
[1]; apical surface, amiloride-pretreated, FIG. 2
  rank order of potency for Cl^- secretion: ATP≥UTP>ATPγS>ADP>2MeSATP>ADPβS
[1]; basal conditions, 10^-7 to 10^-4 M
  effectiveness, apical versus basolateral: approximately equal
[1]; basolateral addition, amiloride-pretreated
  time for ATP induced increase in Isc to return to baseline: ≤ 5 min
[1]; basolateral surface, 10^-3 M drug considered
  character of concentration-effect curve including 10^-3 M: biphasic in character
[1]; basolateral surface, 10^-7 to 10^-4 M
  character of log concentration-effect curve: sigmoidal character
[1]; basolateral surface, FIG. 1
  rank order of potency for increase in Isc: 2MeSATP>UTP≥ATP>ATPγS>ADP>ADPβS
[1]; following ATP
  oscillations in Isc: frequently observed
[2]; apical surface, FIG. 4A
  Isc response tracing: Cl^- secretion in response to ATP
[2]; apical surface, FIG. 4B
  Isc response tracing: opposite polarity
[2]; [4]
  Emax: 14 ± 3%
[2]; apical surface, amiloride-pretreated CF tissues
  change in Isc over basal levels: Most tissues exhibited an increase in Isc over basal levels
[2]; apical, amiloride-pretreated CF tissues
  pattern of Isc response: two distinct patterns of response
[2]; apical, amiloride-pretreated CF tissues, FIG. 4B
  CF tissues responding with a change to opposite polarity of Isc: approximately 30%
[2]; basolateral addition, CF tissues
  Cl^- secretion (amiloride-resistant Isc): Only small changes in Cl^- secretion
[3]
  [Ca^2+ ]i response in CF tissues: Increases in [Ca^2+ ]i
